Measurements taken from US8258295B2, “Triazine derivatives, compositions containing such derivatives, and methods of treatment of cancer and autoimmune diseases using such derivatives” (Prometic Biosciences Inc., priority 2007, dated 2012).
Read-outs that look alike come from different tables or passages of the source.

What was measured:
TNFα = TNFα (Homo sapiens, UniProt P01375); assay: TNFα-induced apoptosis in WEHI-13VAR cell line; assay type: cell-based; settings: for inhibition at 10 µM: 1 × 10^−5 M; for inhibition at 20 µM: 2 × 10^−5 M; for inhibition at 5 µM: 5 × 10^−6 M; for inhibition at 40 µM: 4 × 10^−5 M
TNFα, sequence (P01375 77-233 limits assumed, species assumed): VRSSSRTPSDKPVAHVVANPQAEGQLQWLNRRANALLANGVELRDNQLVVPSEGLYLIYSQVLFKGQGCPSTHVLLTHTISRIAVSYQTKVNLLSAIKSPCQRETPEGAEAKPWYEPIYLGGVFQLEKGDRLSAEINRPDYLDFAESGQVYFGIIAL
Method: Effect of compounds on TNFα-induced apoptosis was measured by a standard biological assay using WEHI-13VAR cells. These cells undergo apoptosis when they are incubated in the presence of TNFα and actinomycin D. 2×10^4 WEHI-13VAR cells were incubated in RPMI supplemented with 1% sodium pyruvate and 10% FBS, overnight at 37° C. for cell adherence. The cells were then cultured in the presence of 1 μg/ml of actimomycin D ([…]) and 0.04 nM TNFα with or without compounds at 37° C. After 16 hr to 24 hr, 50 μl of a solution of 2 mg/ml of MIT was added to each well and the plate was then incubated for 4 hr at 37° C. Only viable cells metabolize MTT to form formazan salt, which is detectable by the measurement of absorbance at 570 nm. After the incubation, the plate was inverted to remove medium and dead cells. 150 μDMSO was added to each well to stop the reaction and solubilize the formazan salt. Optical density was read on a Bio-Tek EL 800 UV microplate reader. A decrease in the optical density is direct evidence of cell apoptosis induced by TNFα. Compounds were also compared to the activity of an anti-TNFα neutralizing antibody.

[1] = test system: oxazolone-induced delayed-type hypersensitivity (DTH); assay: Oxazolone-induced delayed-type hypersensitivity (DTH) in mice; assay type: in vivo
Method: Compounds were tested for their ability to treat oxazolone-induced delayed-type hypersensitivity (DTH) in mice. […] On day 0, day 1, and day 2, mice were treated by intravenous (IV) or oral (PO) administrations of the vehicle (control) or methotrexate (MTX; positive control/IV) or hydrocortisone (positive control/PO) or the compound at concentration lower than or equal to 50 mg/kg or as specified. Mice were challenged with an application of 50 μl of oxazolone on the surface of the right ear (first challenge, day 3; second challenge, day 10). Ear thickness was measured on day 4 to day 7, and on day 11 to 14. Redness and crust formation was also observed. Mice were sacrificed on day 14. TDTH (CD4) cells play an important role in regulating the intensity of the DTH response. Compounds may exert an inhibitory influence on the DTH response through its inhibition of T-cell activation and DNA, RNA, and/or protein synthesis.

[2] = test system: PC-3 human prostate carcinoma cell; assay: MTT cytotoxicity on PC-3; assay type: cell-based
Method: (§1) This assay was performed to determine the effect of compounds of the present invention on cell cytotoxicity. Cells were incubated in presence or absence of compounds in their respective conditioned media. After 24 hr or 72 hr incubation, 50 μl of 3-(4,5-dimethyl-2-thiazyl)-2,5-diphenyl-2H-tetrazolium bromide (MTT; 2 mg/ml) was added and further incubated for 4 hr. The supernatant was discarded and 100 μl of dimethylsulfoxide (DMSO) was added. Absorbance was read at 570 nm with a TecanSunrise ELISA plate reader. The control group consisted of cells without compounds and is referred to as 100% of viable cells. IC50 was determined using Prism software.
(§2) All compounds have weak effect on cell cytotoxicity. The predictive utility of cell based cytotoxicity assays to assess the potential in vivo anticancer activity of compounds with selected cancer cell lines is well established in the art and the use of whole cells, instead of isolated protein receptors or enzymes, provides a more reliable determination of activity. See, for example, Paull et al. (J. Nat'l Cancer Inst. 81:1088-1092, 1989); Monks et al. (J. Nat'l Cancer Inst. 83:757-766, 1991); Bandes et al. (J. Nat'l Cancer Inst. 86:770-775, 1994); and Kamate et al. (Int'l J. Cancer 100:571-579, 2002).

[3] = test system: P815 murine mastocytoma cell; assay: MTT cytotoxicity on P815; assay type: cell-based; settings: Mus musculus
Method: as §1, §2

[4] = test system: HUVEC (human umbilical vein endothelial cell); assay: MTT cytotoxicity on HUVEC; assay type: cell-based
Method: as §1, §2

[5] = test system: NHDF (normal human dermal fibroblast); assay: MTT cytotoxicity on NHDF; assay type: cell-based
Method: as §1, §2

[6] = test system: LPS-induced inflammation in the rat air-pouch model; assay: LPS-induced inflammation in rat air-pouch model; assay type: in vivo, rats; settings: IV, pouch exudate
Excerpt: LPS-induced inflammation in the rat air-pouch model is believed to mimic the pathological process occurring in joint diseases such as arthritis. This is because the connective tissues formed along the air pouch are similar to those found in chronic joint diseases. LPS-induced inflammation and chronic joint diseases share other features, including markedly elevated PGE2, neutrophil infiltration, cytokine formation, and tissue damage.
An air cavity was produced at day −6 by subcutaneous injection of 20 ml of sterile air into the intrascapular area of the back of male Lewis rats (175 to 200 g). An additional 10 ml of air was injected into the cavity at day −3 to keep the space open. At day 0, compounds were administered intravenously and one hour later lipopolysaccharide (LPS: 2.5 ml of 2 μg/ml in PBS) was injected into the pouch to produce an inflammatory reaction. […] The pouch fluid was collected. The volume of exudates was measured and the number of leukocytes present in the exudates was determined with a Coulter counter. The differential count was determined by Wright-Giemsa staining. PGE2, LTB4, MCP, and TNFα were determined in the pouch exudates by specific ELISAs.

[7] = test system: adjuvant-induced arthritis (AIA); assay: Freund's adjuvant-induced arthritis (AIA) in Lewis rats; assay type: in vivo; settings: female Lewis rats, oral administration; FIG. 18
Method: AIA was induced in female Lewis rats by the injection of lyophilized Mycobacterium butyricum suspended in mineral oil into the footpad. The development of arthritis was monitored over a 3-week period post-adjuvant injection. Inflammation peaks at day 3 following the adjuvant administration. Immune activation appears around day 10 to day 16. Compounds were orally administered from day −3 to day 21. Body weight was recorded. The arthritis index, which is a measure of inflammation (edema), redness, and stiffness of the articulations, was used to monitor the development of the disease. The degree of arthritis was determined by measuring two perpendicular diameters of the ankles in the mediolateral and dorsoventral planes using a caliper. Joint circumference in millimeters is then calculated using a geometric formula.

[8] = 24 hr culture, read-out: IC50 of 24-hour culture PC-3
[9] = 72 hr culture, read-out: IC50 of 72-hour culture PC-3
[10] = 24 hr culture, read-out: IC50 of 24-hour culture P815
[11] = 72 hr culture, read-out: IC50 of 72-hour culture P815

Structure (SMILES)	inhibition at 10 µM (TNFα)	inhibition at 20 µM (TNFα)	inhibition at 5 µM (TNFα)	inhibition at 40 µM (TNFα)	IC50 [2, 8]	IC50 [2, 9]	IC50 [3, 10]	IC50 [3, 11]	also measured
CN(C)S(=O)(=O)c1ccc(CCNc2nc(NCCCCCN)nc(Nc3cccc(F)c3)n2)cc1 [Compound III]	52%	89.7%	20.4%		30.1 µM	27.6 µM	13.6 µM	5.5 µM	inflammation (ear thickness) after DTH ([1]; oral 50 mg/kg, first challenge of oxazolone): significant reduction of the inflammation; inflammation (ear thickness) after DTH ([1]; oral 50 mg/kg, second challenge of oxazolone): significant reduction of the inflammation
NCCCCCNc1nc(NCCc2ccc(N)cc2)nc(Nc2ccc(F)cc2)n1 [Compound IV]	13.1%	31.6%	3.7%	47.2%	56.6 µM	51.9 µM	33 µM		IC50 ([4]; 24 hr culture, read-out: IC50 of 24-hour culture HUVEC): 51.3 µM; IC50 ([4]; 72 hr culture, read-out: IC50 of 72-hour culture HUVEC): > 100 µM; inflammation (ear thickness) after DTH ([1]; oral 50 mg/kg, FIG. 15): significant reduction of the inflammation; IC50 ([5]; 24 hr culture, read-out: IC50 of 24-hour culture NHDF): 82.1 µM; IC50 ([5]; 72 hr culture, read-out: IC50 of 72-hour culture NHDF): 42.5 µM
NCCCCNc1nc(NCCc2ccc(S(N)(=O)=O)cc2)nc(Nc2cccc(F)c2)n1 [Compound IX]	29.8%	46.7%	13.2%	65.5%					
NCCCCCNc1nc(Nc2ccc(S(N)(=O)=O)cc2)nc(Nc2cccc(F)c2)n1 [Compound VIII]	35.6%	48.1%	17%	55.6%	31 µM	5.2 µM	10.9 µM	2.9 µM	
NCCCCCNc1nc(Nc2cccc(F)c2)nc(-c2cccc(F)c2)n1 [XII]						9 µM		21.7 µM	
COc1ccc2c(c1)c(CC(=O)O)c(C)n2C(=O)c1ccc(Cl)cc1 [indomethacin, reference compound]									PGE2 production induced by LPS ([6]; twelve hours after induction, FIG. 21B): significant inhibition; TNFα production induced by LPS ([6]; twelve hours post-LPS induction, FIG. 21A): weak inhibition; TNFα production induced by LPS ([6]; two hours after induction, FIG. 20A): increase the concentration of TNFα; PGE2 production induced by LPS ([6]; two hours after induction, FIG. 20B): significant inhibition; LTB4 production induced by LPS ([6]; two hours after induction, FIG. 20C): did not affect the production of LTB4; MCP-1 production induced by LPS ([6]; two hours after induction, FIG. 20D): significant increase; severity of arthritis (inflammatory index) [7]: significant reduction in the severity of arthritis

Further lines, with some results ahead:

inhibition at 10 µM (TNFα)	inhibition at 20 µM (TNFα)	inhibition at 5 µM (TNFα)	inhibition at 40 µM (TNFα)	Structure (SMILES)	IC50 [2, 8]	IC50 [2, 9]	IC50 [3, 10]	IC50 [3, 11]	also measured
65.8%	99.9%	30%	118%	NCCCCCNc1nc(NCCc2ccc(S(N)(=O)=O)cc2)nc(Nc2ccc(F)cc2)n1 [Compound VII]	17.7 µM	14.1 µM	12.6 µM	4 µM	
54.8%	74.1%	28.2%	89.5%	NCCCCCNc1nc(NCCc2ccc(C(N)=O)cc2)nc(Nc2cccc(F)c2)n1 [Compound VI]					
14.6%	23.7%	9.9%	35%	NCCCCCNc1nc(NCC(O)c2ccc(O)cc2)nc(Nc2ccc(F)cc2)n1 (stereo not shown) [Compound XI]					inflammation (ear thickness) after DTH ([1]; IV 25 mg/kg, first challenge of oxazolone): significant reduction of the inflammation
44.4%	79.9%	19.4%	53.9%	CN(C)S(=O)(=O)c1ccc(CCNc2nc(NCCCCCN)nc(Nc3ccc(F)cc3)n2)cc1 [Compound X]					inflammation (ear thickness) after DTH ([1]; IV 5 mg/kg, first challenge of oxazolone): significant reduction of the inflammation
